Molecules are shown by their SMILES.

Consider 17 molecules from ChEMBL document CHEMBL5550222, “Synthesis and Biological Evaluation of Novel Psidium Meroterpenoid Derivatives against Cisplatin-Induced Acute Kidney Injury” (J Med Chem, 2024).

A short description of data set [1]: Cytotoxicity against human HK-2 cells incubated for 72 hrs by MTT assay. It counts as toxicity, cell-based.
The test system of data set [2] is HK-2. The data set is described as follows: Protection against cisplatin-induced nephrotoxicity in human HK-2 cells assessed as cell viability at 1 uM preincubated with compound for 2 hrs followed by cisplatin induction and measured after 72 hrs by MTT assay (reference value: 37.37 +/- 1.35%). It counts as functional. The note with it: time 74 hrs, read-out: Activity. A general note: Tetrazolium dyes change colour on reduction, which living cells bring about.

In data set [3] the test system is HK-2. Briefly: Protection against cisplatin-induced nephrotoxicity in human HK-2 cells assessed as cell viability at 10 uM preincubated with compound for 2 hrs followed by cisplatin induction and measured after 72 hrs by MTT assay (reference value: 37.37 +/- 1.35%). The format is functional. As to conditions: time 74 hrs, read-out: Activity.
Data set [4] deals with HK-2. The data set is described as follows: Protection against cisplatin-induced nephrotoxicity in human HK-2 cells assessed as cell viability at 5 uM preincubated with compound for 2 hrs followed by cisplatin induction and measured after 72 hrs by MTT assay (reference value: 37.37 +/- 1.35%). The format is functional. The note with it: time 74 hrs, read-out: Activity.

A word on the IC50: it is the point on the concentration scale where inhibition reaches its midpoint. A high value points to weaker potency in that assay. In turn, `COc1c(C=O)c(OC)c(C(=O)c2ccccc2)c2c1CC1C[C@@H]3[C@H](CC1(C)O2)C3(C)C` (stereo partly drawn) came in with an IC50 at 72 h in data set [1] above 10 µM. For the same molecule, the viability at 1 µM in the data set on HK-2 [2] amounted to 36.3%. In addition, the viability at 10 µM with HK-2 [3] is 39%. Also, in the data set with HK-2 [4], the viability at 5 µM was determined as 39.8%.

As to `CC1Cc2c(O)c(C=O)c(O)c(C(=O)c3ccccc3)c2OC1(C)C` (stereo not drawn), the IC50 at 72 h in data set [1] is above 10 µM. For the same molecule, the viability at 1 µM in the data set on HK-2 [2] was 39.9%. In the data set on HK-2 [3], the viability at 10 µM was found to be 47%. The viability at 5 µM in the data set on HK-2 [4] came out at 43.6%.

Consider `COc1c2c(c(C(=O)c3ccccc3)c(OC)c1C(=O)O)OC(C)(C)C(C)C2` (stereo not drawn), for which the IC50 at 72 h in data set [1] is above 10 µM. Moreover, in the data set with HK-2 [2], the viability at 1 µM amounted to 33.6%. Also, in the data set on HK-2 [3], the viability at 10 µM was found to be 33.4%. Moreover, the viability at 5 µM in the data set with HK-2 [4] was found to be 30.4%.

`CC12C[C@H]3[C@@H](CC1Cc1c(O)c(C=O)c(O)c(C(=O)c4ccccc4)c1O2)C3(C)C` (stereo partly drawn) returned a half-inhibitory concentration (IC50) at 72 h in data set [1] of 7.81 µM.

Take `COc1c(C=O)c2c(c(OC)c1C(=O)c1ccccc1)CC(C)C(C)(C)O2` (stereo not drawn): the IC50 at 72 h in data set [1] is above 10 µM. For the same molecule, in the data set with HK-2 [2], the viability at 1 µM stood at 37.5%. The viability at 10 µM with HK-2 [3] was 46.2%. The viability at 5 µM in the data set with HK-2 [4] was 43.7%.

Turning to `CC12CCCCC1Cc1c(O)c(C(=O)c3ccccc3)c(O)c(C=O)c1O2` (stereo not drawn), the half-maximal inhibitory concentration (IC50) at 72 h in data set [1] is above 10 µM. For the same molecule, the viability at 1 µM in the data set with HK-2 [2] was 34.8%. Moreover, the viability at 10 µM in the data set on HK-2 [3] was 38%. The viability at 5 µM in the data set on HK-2 [4] worked out at 39.3%.

`COc1c2c(c(CN3CCN(C)CC3)c(OC)c1C(=O)c1ccccc1)OC1(C)C[C@H]3[C@@H](CC1C2)C3(C)C` (stereo partly drawn) registered a half-maximal inhibitory concentration (IC50) at 72 h in data set [1] above 10 µM. Also, the viability at 1 µM in the data set on HK-2 [2] was 37.5%. Further, in the data set on HK-2 [3], the viability at 10 µM was 40.8%. Besides, the viability at 5 µM in the data set with HK-2 [4] is 41.9%.

In data set [1], `COc1c2c(c(C(=O)O)c(OC)c1C(=O)c1ccccc1)OC(C)(C)C(C)C2` (stereo not drawn) came in with a half-maximal inhibitory concentration (IC50) at 72 h above 10 µM. Moreover, the viability at 1 µM in the data set with HK-2 [2] stood at 37.8%. Further, in the data set on HK-2 [3], the viability at 10 µM is 32%. The viability at 5 µM in the data set with HK-2 [4] stood at 28.9%.

For the molecule `COc1c(CN2CCN(C)CC2)c(OC)c(C(=O)c2ccccc2)c2c1CC(C)C(C)(C)O2` (stereo not drawn), the IC50 at 72 h in data set [1] is above 10 µM. For the same molecule, the viability at 1 µM with HK-2 [2] worked out at 37.2%. In addition, in the data set with HK-2 [3], the viability at 10 µM worked out at 38.9%. In addition, in the data set on HK-2 [4], the viability at 5 µM is 39.2%.

Consider `CC12CCCC1Cc1c(O)c(C(=O)c3ccccc3)c(O)c(C=O)c1O2` (stereo not drawn), for which, in data set [1], the half-maximal inhibitory concentration (IC50) at 72 h was above 10 µM. Also, in the data set on HK-2 [2], the viability at 1 µM came out at 37.2%. In the data set on HK-2 [3], the viability at 10 µM was found to be 38.6%. In addition, the viability at 5 µM in the data set on HK-2 [4] was determined as 38.2%.

In data set [1], `COc1c(C=O)c(OC)c(C(=O)c2ccccc2)c2c1CC(C)C(C)(C)O2` (stereo not drawn) returned an IC50 at 72 h above 10 µM. Besides, in the data set with HK-2 [2], the viability at 1 µM was 26.8%. The viability at 10 µM in the data set with HK-2 [3] worked out at 43.5%. The viability at 5 µM in the data set with HK-2 [4] was found to be 30.4%.

`COc1c2c(c(CN3CCN(C)CC3)c(OC)c1C(=O)c1ccccc1)OC(C)(C)C(C)C2` (stereo not drawn) yielded a half-inhibitory concentration (IC50) at 72 h in data set [1] above 10 µM. In addition, the viability at 1 µM in the data set with HK-2 [2] was 39.7%. Besides, the viability at 10 µM with HK-2 [3] turned out to be 38.2%. The viability at 5 µM with HK-2 [4] was 33%.

For `COc1c(CO)c(OC)c(C(=O)c2ccccc2)c2c1CC1C[C@@H]3[C@H](CC1(C)O2)C3(C)C` (stereo partly drawn), in data set [1], the IC50 at 72 h is above 10 µM. Moreover, the viability at 1 µM in the data set on HK-2 [2] turned out to be 36%. In the data set with HK-2 [3], the viability at 10 µM turned out to be 59.2%. For the same molecule, in the data set on HK-2 [4], the viability at 5 µM came out at 43.1%.

`COc1c(C=O)c2c(c(OC)c1C(=O)c1ccccc1)CC1CCCC1(C)O2` (stereo not drawn) displayed a 50% inhibitory concentration (IC50) at 72 h in data set [1] above 10 µM. Further, in the data set with HK-2 [2], the viability at 1 µM came out at 37.4%. In addition, the viability at 10 µM in the data set on HK-2 [3] was 30.8%. For the same molecule, in the data set with HK-2 [4], the viability at 5 µM was found to be 33.4%.

In data set [1], `COc1c2c(c(C(=O)c3ccccc3)c(OC)c1C(=O)O)OC1(C)C[C@H]3[C@@H](CC1C2)C3(C)C` (stereo partly drawn) returned a concentration for half-maximal inhibition (IC50) at 72 h above 10 µM. Moreover, in the data set on HK-2 [2], the viability at 1 µM was found to be 30.2%. In the data set on HK-2 [3], the viability at 10 µM was determined as 40%.

Take `CC12C[C@H]3[C@@H](CC1Cc1c(O)c(C(=O)c4ccccc4)c(O)c(C=O)c1O2)C3(C)C` (stereo partly drawn): it took 9.31 µM to reach half-maximal inhibition in data set [1] (IC50 at 72 h).

In turn, `COc1c(CO)c2c(c(OC)c1C(=O)c1ccccc1)CC1C[C@@H]3[C@H](CC1(C)O2)C3(C)C` (stereo partly drawn) registered an IC50 at 72 h in data set [1] of 6.42 µM.
